This data set is described as follows: human clinical trial of lung delivery by inhalation of [99mTc]DTPA aerosol from the nebuliser. The format is in vivo. Conditions: for Left lung dose / Right lung dose / Total lung dose: inhalation via described nebuliser, unadjusted. The text has this:
Nebulisers in accordance with the described embodiments have been subject to human clinical trials to determine efficiency of delivery of active agents to the lungs by inhalation using Technetium-99m DTPA aerosol ([^99mTc]DTPA aerosol).

As to “Technetium-99m DTPA [[^99mTc]DTPA aerosol]”, the Left lung dose is, setting by setting: (Volunteer 1) 7.15 MBq; (Volunteer 2) 25.2 MBq; (Volunteer 3) 22.2 MBq; (Volunteer 4) 23.3 MBq. Also, the Right lung dose runs as follows: (Volunteer 1) 8.25 MBq; (Volunteer 2) 27.1 MBq; (Volunteer 3) 21.9 MBq; (Volunteer 4) 26.6 MBq. The Total lung dose was 15.4 MBq (Volunteer 1), 52.3 MBq (Volunteer 2), 44.1 MBq (Volunteer 3) and 49.9 MBq (Volunteer 4). Moreover, the “efficiency of delivery to the lungs by inhalation” value (human clinical trials, initial results) is recorded as “effective delivery of nebulised active agent to the target tissue”.

The values are drawn from patent US20220401662A1, “ACOUSTIC NEBULISER FOR DELIVERY OF ACTIVE AGENTS” (Royal Melbourne Institute of Technology, priority 2020, published 2022).
